Results: ChEMBL document CHEMBL5346911, “From PROTAC to inhibitor: Structure-guided discovery of potent and orally bioavailable BET inhibitors” (Eur J Med Chem, 2023)
Values after ≈ are worked out from the molar mass of the structure shown.

Tests used:
[1] = in vitro; conditions: human, plasma
[2] = system: HD-MB03; assay: cells; conditions: Homo sapiens, HD-MB03, 72 h
[3] = human, microsomes
[4] = cells; conditions: Homo sapiens, NALM16, 72 h
[5] = in vitro; conditions: human, plasma; remark: listed apart in the source
[6] = system: D283 Med; assay: cells; conditions: Homo sapiens, 72 h
[7] = target: T1, Bromodomain-containing protein 2 (Homo sapiens, UniProt P25440); assay: Inhibition of BRD2 BD2 (unknown origin) by TR-FRET assay
[8] = system: MV4-11; assay: cells; conditions: Homo sapiens, MV4-11, 72 h
[9] = target: T1, Bromodomain-containing protein 2; assay: Inhibition of BRD2 BD1 (unknown origin) by TR-FRET assay
[10] = system: MOLM-13; assay: cells; conditions: Homo sapiens, MOLM-13, 72 h
[11] = target: T2, Bromodomain-containing protein 4 (Homo sapiens, UniProt O60885)
[12] = target: T2, Bromodomain-containing protein 4; remark: listed apart in the source
[13] = AUClast in CD1 mouse at 1 mg/kg, iv measured upto 24 hrs by LC-MS/MS method; format: ADME, organism-based; parameters: time < 24 hrs, dose 1 mg/kg, route iv; conditions: in vivo
[14] = buffer, pH 7.4, 18 h
[15] = Oral bioavailability in CD1 mouse at 10 mg/kg measured upto 24 hrs by LC-MS/MS method; format: ADME, organism-based; conditions: in vivo
[16] = Cmax in CD1 mouse at 1 mg/kg, iv measured upto 24 hrs by LC-MS/MS method; format: ADME, organism-based; parameters: time < 24 hrs, dose 1 mg/kg, route iv; conditions: in vivo
[17] = Unbound clearance in CD1 mouse at 3 mg/kg, po measured upto 24 hrs by LC-MS/MS method; format: ADME, organism-based; conditions: in vivo
[18] = AUClast in CD1 mouse at 10 mg/kg, po measured upto 24 hrs by LC-MS/MS method; format: ADME, organism-based; parameters: dose 10 mg/kg, time < 24 hrs, route po; conditions: in vivo
[19] = Tmax in CD1 mouse at 10 mg/kg, po measured upto 24 hrs by LC-MS/MS method; format: ADME, organism-based; conditions: in vivo
[20] = in vitro; conditions: human, Caco-2
[21] = Cmax in CD1 mouse at 10 mg/kg, po measured upto 24 hrs by LC-MS/MS method; format: ADME, organism-based; parameters: time < 24 hrs, dose 10 mg/kg, route po; conditions: in vivo
[22] = Tmax in CD1 mouse at 3 mg/kg, po measured upto 24 hrs by LC-MS/MS method; format: ADME, organism-based; conditions: in vivo
[23] = Unbound clearance in CD1 mouse at 1 mg/kg, iv measured upto 24 hrs by LC-MS/MS method; format: ADME, organism-based; conditions: in vivo
[24] = Unbound clearance in CD1 mouse at 10 mg/kg, po measured upto 24 hrs by LC-MS/MS method; format: ADME, organism-based; conditions: in vivo
[25] = Half life in CD1 mouse at 3 mg/kg, po measured upto 24 hrs by LC-MS/MS method; format: ADME, organism-based; conditions: in vivo
[26] = Downregulation of MYC level in human MV4-11 cells at 100 nM measured after 6 hrs by immunoblotting analysis relative to control; format: functional
[27] = Downregulation of MYC level in human MV4-11 cells at 1 uM measured after 6 hrs by immunoblotting analysis relative to control; format: functional
[28] = Cmax in CD1 mouse at 3 mg/kg, po measured upto 24 hrs by LC-MS/MS method; format: ADME, organism-based; parameters: time < 24 hrs, dose 3 mg/kg, route po; conditions: in vivo
[29] = Half life in CD1 mouse at 10 mg/kg, po measured upto 24 hrs by LC-MS/MS method; format: ADME, organism-based; conditions: in vivo
[30] = Half life in CD1 mouse at 1 mg/kg, iv measured upto 24 hrs by LC-MS/MS method; format: ADME, organism-based; conditions: in vivo
[31] = Apparent volume of distribution during terminal phase in CD1 mouse at 1 mg/kg, iv measured upto 24 hrs by LC-MS/MS method; format: ADME, organism-based; conditions: in vivo
[32] = AUClast in CD1 mouse at 3 mg/kg, po measured upto 24 hrs by LC-MS/MS method; format: ADME, organism-based; parameters: dose 3 mg/kg, time < 24 hrs, route po; conditions: in vivo
[33] = Oral bioavailability in CD1 mouse at 3 mg/kg measured upto 24 hrs by LC-MS/MS method; format: ADME, organism-based; conditions: in vivo

T1 sequence (P25440 whole entry): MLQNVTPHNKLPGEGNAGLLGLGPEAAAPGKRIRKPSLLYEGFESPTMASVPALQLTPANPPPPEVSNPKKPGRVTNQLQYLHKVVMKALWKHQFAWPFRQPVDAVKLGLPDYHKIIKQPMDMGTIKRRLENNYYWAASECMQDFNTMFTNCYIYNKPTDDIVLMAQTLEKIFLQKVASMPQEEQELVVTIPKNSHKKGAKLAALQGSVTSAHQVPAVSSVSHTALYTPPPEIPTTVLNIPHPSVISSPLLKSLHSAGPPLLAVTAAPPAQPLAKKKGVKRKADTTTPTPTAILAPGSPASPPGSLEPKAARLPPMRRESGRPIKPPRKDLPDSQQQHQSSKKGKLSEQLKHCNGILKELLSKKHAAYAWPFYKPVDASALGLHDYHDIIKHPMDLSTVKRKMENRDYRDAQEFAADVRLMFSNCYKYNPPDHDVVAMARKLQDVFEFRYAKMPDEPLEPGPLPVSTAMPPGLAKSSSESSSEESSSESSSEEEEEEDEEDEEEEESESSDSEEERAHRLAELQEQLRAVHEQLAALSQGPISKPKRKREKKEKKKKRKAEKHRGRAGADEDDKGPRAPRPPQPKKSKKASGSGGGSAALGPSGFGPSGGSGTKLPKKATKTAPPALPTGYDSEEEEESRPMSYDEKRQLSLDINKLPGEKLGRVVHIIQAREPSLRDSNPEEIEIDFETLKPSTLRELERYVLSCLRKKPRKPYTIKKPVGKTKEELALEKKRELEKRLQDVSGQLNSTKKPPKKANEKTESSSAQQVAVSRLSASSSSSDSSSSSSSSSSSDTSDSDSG

Cc1sc2c(c1C)C(c1ccc(Cl)cc1)=N[C@@H](CC(=O)OC(C)(C)C)c1nnc(C)n1-2
half-life at 48 h [1]: > 100 h
IC50 [2]: 90 nM
t1/2 [3]: 0.4 h
IC50 [4]: 18 nM
fraction unbound [5]: 0.008
IC50 [6]: 60 nM

Cc1sc2c(c1C)C(c1ccc(Cl)cc1)=N[C@@H](CC(=O)NCCc1c[nH]c3ccccc13)c1nnc(C)n1-2
IC50 [2]: 254 nM
IC50 [4]: 172 nM
IC50 [7]: 50 nM
IC50 [8]: 182 nM
IC50 [9]: 252 nM
IC50 [10]: 318 nM

COC(=O)[C@H](Cc1c[nH]cn1)NC(=O)C[C@@H]1N=C(c2ccc(Cl)cc2)c2c(sc(C)c2C)-n2c(C)nnc21
IC50 [4]: 791 nM
IC50 [6]: 2930 nM
IC50 [7]: 9 nM
IC50 [8]: 1140 nM
IC50 [9]: 32 nM
IC50 [11]: 6 nM
IC50 [12]: 34 nM
IC50 [10]: 200 nM

Cc1sc2c(c1C)C(c1ccc(Cl)cc1)=N[C@@H](CC(=O)NCCO)c1nnc(C)n1-2
IC50 [2]: 42 nM
IC50 [4]: 7 nM
IC50 [6]: 413 nM
IC50 [10]: 8 nM

Cc1sc2c(c1C)C(c1ccc(Cl)cc1)=N[C@@H](CC(=O)NCc1ccccc1)c1nnc(C)n1-2
half-life at 48 h [1]: > 100 h
IC50 [2]: 619 nM
IC50 [4]: 452 nM
IC50 [7]: 0.2 nM
IC50 [9]: 21 nM
IC50 [11]: 0.3 nM
IC50 [10]: 385 nM

Cc1sc2c(c1C)C(c1ccc(Cl)cc1)=N[C@@H](CC(=O)NCc1cn(C)cn1)c1nnc(C)n1-2
half-life at 48 h [1]: > 100 h
IC50 [2]: 358 nM
IC50 [4]: 93 nM
IC50 [6]: 789 nM
IC50 [7]: 3 nM
IC50 [8]: 143 nM
IC50 [9]: 17 nM
IC50 [11]: 0.6 nM
IC50 [12]: 82 nM
IC50 [10]: 52 nM

Cc1sc2c(c1C)C(c1ccc(Cl)cc1)=N[C@@H](CC(=O)NCc1cn(C)nn1)c1nnc(C)n1-2
half-life at 48 h [1]: > 100 h
IC50 [2]: 40 nM
IC50 [4]: 14 nM
IC50 [8]: 59 nM
IC50 [9]: 639 nM
IC50 [11]: 26 nM
IC50 [12]: 1410 nM
IC50 [10]: 11 nM

Cc1sc2c(c1C)C(c1ccc(Cl)cc1)=N[C@@H](CC(=O)NCc1c[nH]nn1)c1nnc(C)n1-2
half-life at 48 h [1]: > 100 h
IC50 [2]: 3 nM
IC50 [4]: 7 nM
IC50 [6]: 964 nM
IC50 [8]: 253 nM
IC50 [9]: 8 nM
IC50 [11]: 1 nM
IC50 [12]: 79 nM
IC50 [10]: 3 nM

Cc1sc2c(c1C)C(c1ccc(Cl)cc1)=N[C@@H](CC(=O)NCC(=O)O)c1nnc(C)n1-2
half-life at 48 h [1]: > 100 h
IC50 [2]: 9340 nM
IC50 [4]: > 8850 nM
IC50 [6]: > 8850 nM
IC50 [7]: 0.3 nM
IC50 [8]: 3060 nM
IC50 [9]: 146 nM
IC50 [11]: 0.4 nM

COC(=O)CNC(=O)C[C@@H]1N=C(c2ccc(Cl)cc2)c2c(sc(C)c2C)-n2c(C)nnc21
IC50 [2]: 359 nM
IC50 [4]: 16 nM
IC50 [6]: 337 nM
IC50 [10]: 9 nM

Cc1sc2c(c1C)C(c1ccc(Cl)cc1)=N[C@@H](CC(=O)Nc1nncs1)c1nnc(C)n1-2
AUClast [13]: 1567.1 ng·h/mL
solubility [14]: 12 µM (≈ 5.81 µg/mL)
F [15]: 60%
Cmax [16]: 1930 ng/mL
CL free [17]: 15.2 mL/min/kg
AUClast [18]: 9473 ng·h/mL
Tmax [19]: 0.5 h
Papp A→B [20]: 6.65 ×10⁻⁶ cm/s
Cmax [21]: 3155.6 ng/mL
half-life at 48 h [1]: > 100 h
Tmax [22]: 1 h
IC50 [2]: 6 nM
CL free [23]: 10.6 mL/min/kg
CL free [24]: 17.5 mL/min/kg
t1/2 [25]: 3.9 h
Activity [26]: 50%
t1/2 [3]: 3.2 h
IC50 [4]: 3 nM
Activity [27]: 22%
IC50 [6]: 56 nM
IC50 [7]: 0.1 nM
Cmax [28]: 1555.3 ng/mL
t1/2 [29]: 3.9 h
t1/2 [30]: 1.5 h
Vz/F [31]: 0.8 L/kg
IC50 [8]: 20 nM
IC50 [11]: 0.2 nM
IC50 [12]: 6 nM
AUClast [32]: 3275.4 ng·h/mL
F [33]: 70%
IC50 [10]: 10 nM

Cc1sc2c(c1C)C(c1ccc(Cl)cc1)=N[C@@H](CC(=O)NCc1ccccn1)c1nnc(C)n1-2
IC50 [2]: 263 nM
IC50 [4]: 14 nM
IC50 [6]: 228 nM
IC50 [7]: 0.3 nM
IC50 [8]: 444 nM
IC50 [9]: 16 nM
IC50 [10]: 8 nM

Cc1sc2c(c1C)C(c1ccc(Cl)cc1)=N[C@@H](CC(=O)Nc1nccs1)c1nnc(C)n1-2
half-life at 48 h [1]: > 100 h
IC50 [2]: 4 nM
IC50 [4]: 6 nM
IC50 [8]: 40 nM
IC50 [9]: 10 nM
IC50 [10]: 22 nM

Cc1sc2c(c1C)C(c1ccc(Cl)cc1)=N[C@@H](CC(=O)NCc1ccon1)c1nnc(C)n1-2
solubility [14]: 56.9 µM (≈ 27.4 µg/mL)
Papp A→B [20]: 15 ×10⁻⁶ cm/s
half-life at 48 h [1]: > 100 h
IC50 [2]: 17 nM
t1/2 [3]: 0.4 h
IC50 [4]: 12 nM
fraction unbound [5]: 0.065
IC50 [6]: 25 nM
IC50 [7]: 0.1 nM
IC50 [8]: 32 nM
IC50 [9]: 3 nM
IC50 [10]: 14 nM

Cc1sc2c(c1C)C(c1ccc(Cl)cc1)=N[C@@H](CC(=O)NCc1ncco1)c1nnc(C)n1-2
IC50 [2]: 1 nM
IC50 [6]: 18 nM
IC50 [7]: 0.1 nM
IC50 [9]: 9 nM
IC50 [10]: 2 nM

Cc1sc2c(c1C)C(c1ccc(Cl)cc1)=N[C@@H](CC(=O)Nc1ccc(O)cc1)c1nnc(C)n1-2 [BIRABRESIB]
solubility [14]: 23.4 µM (≈ 11.5 µg/mL)
Papp A→B [20]: 22.2 ×10⁻⁶ cm/s
half-life at 48 h [1]: > 100 h
t1/2 [3]: 1.7 h
IC50 [4]: 14 nM
fraction unbound [5]: 0.027
IC50 [6]: 66 nM
IC50 [8]: 22 nM
IC50 [10]: 11 nM
